Reference: article PMC10782483, “Development of the High-Affinity Carborane-Based Cannabinoid Receptor Type 2 PET Ligand [^18F]LUZ5-d8” (Journal of Medicinal Chemistry, 2023)
Values joined by “and” are separate entries in the source; they are usually repeats but may differ in a detail not shown here. Equal entries are not always repeated. “Also recorded” adds a separate entry of the source. Where two headings read alike, the source gives them in different places.

What was measured:
[1] = chemical stability tests by 1H and 11B{1H} NMR spectroscopy in aqueous DMSO-d6; type: physicochemical; details: for chemical stability in aqueous DMSO-d6 (NMR), in words / stability in aqeous DMSO-d6 (1H, 11B{1H}-NMR) / stability versus binding affinity assay time frame: aqueous DMSO-d6; for stability versus binding affinity assay time frame: assay time 90 min
Method: A high chemical and metabolic stability of the compounds is required for biological evaluation and application in vivo. The method of choice for evaluating the chemical stability was ^1H and ^11B{^1H} NMR spectroscopy, with the latter being particularly suitable for recognizing deboronation. Since the in vitro binding assays are performed in aqueous media, the stability tests should be performed under similar conditions. However, due to the high hydrophobicity of the carborane moieties, target compounds 9–11 and 15–17 were not soluble in aqueous solution without the addition of dimethyl sulfoxide (DMSO). Since a maximum of 1% DMSO can be used in the in vitro binding assay, stability measurements were performed in aqueous DMSO-d6 to see especially if deboronation occurs in the presence of water. Approximately 10 mg of each compound (9–11 and 15–17) was dissolved in the deuterated NMR solvent and monitored via NMR spectroscopy in time intervals of a few minutes (after the addition of the solvent to the respective solid compound) to at least 23 days for the o- (9 and 15) and m-carborane derivatives (10 and LUZ5) and beyond one year for the p-carborane analogues (11 and 17) (Figures S68–S79).
Stability tests were performed with ^1H and ^11B{^1H} NMR spectroscopy. Approximately 10 mg of each compound was dissolved in aqueous DMSO-d6 and measured directly thereafter and at increasing time intervals from a few minutes to a couple of days or beyond a year.
The stability of LUZ5 was additionally investigated under the conditions described above, but in the presence of larger amounts of H2O or D2O. For this, LUZ5 was dissolved in DMSO-d6 (0.5 mL) and either H2O (0.1 mL) or D2O (0.1 mL) was added.

human CB2R = target: T1, human CB2R (Homo sapiens, UniProt P34972); assay: competitive binding affinity assay, membrane homogenates of hCB2R CHO cells, radioligand [3H]WIN55212-2; details: hCB2R CHO membranes
T1 construct: expressed in transfected cells; host or cells: CHO cells (membrane homogenates)
Method: Target compounds 9–11, 15, LUZ5, and 17 were evaluated in a competitive binding affinity assay using hCB2R Chinese hamster ovary (CHO) cells and the agonistic high-affinity CB2R radioligand [^3H]WIN55212-2 (Figure S96).
(§1) The in vitro binding affinity assays were performed with membrane homogenates from Chinese hamster ovary (CHO) cells stably transfected with the human CB2R according to a previously published protocol.[95] The screening for CB1R binding affinity determination was performed with membrane homogenates from CHO cells stably transfected with the human CB1R as described previously.[96]

CB2R = details: reference compound; read-out: KiCB2R; cited from earlier work
[2] = cited from earlier work
[3] = rat, in vivo; cited from earlier work
[4] = test system: mouse liver microsomes (MLMs); assay: in vitro metabolism with mouse liver microsomes and NADPH, HPLC-UV-MS; type: in vitro ADME; details: NADPH, similar conditions
Method: Each of the compounds was incubated with mouse liver microsomes (MLMs) in phosphate-buffered saline (PBS) in the presence of nicotinamide adenine dinucleotide phosphate (NADPH) for 30 and 60 min at 37 °C, according to a literature protocol.[81],[82] After the addition of cold acetonitrile, the obtained supernatants were analyzed by HPLC-UV-MS (exemplified chromatogram and spectrum in Figures S91 and S92). […] In addition, negative control samples without NADPH or without NADPH and MLM were prepared and analyzed for each target compound.
For in vitro evaluation of metabolites, the following instruments were used: BioShake iQ (QUANTIFOIL Instruments, Jena, Germany), Centrifuge 5424 (Eppendorf, Hamburg, Germany), UltiMate 3000 UHPLC System (Thermo Scientific, Germering, Germany) including a DAD detector (DAD-3000RS) coupled to an MSQ Plus single quadrupole mass spectrometer (Thermo Scientific, Austin, TX). […] In brief, each of the test compounds (dissolved in DMSO, final concentration of 10 μM, final DMSO percentage of 1%) and MLMs (final protein concentration of 1 mg/mL) in PBS (pH 7.4) were preincubated in PBS (pH 7.4) for 5 min at 37 °C. Similarly preincubated NADPH (final concentration of 2 mM) was added to start the incubation. […] The supernatants were stored at 4 °C until they were measured by HPLC-UV-MS. […]

human CB1R = target: T2, human CB1R (Homo sapiens, UniProt P21554); assay: CB1R binding affinity screening, membrane homogenates of CHO cells with human CB1R, radioligand [3H]SR141716A; details: human CB1R CHO membranes
T2 construct: expressed in transfected cells; host or cells: CHO cells (membrane homogenates)
Method: as §1

[5] = individual values behind the mean, read-out: KiCB2R individual values

T1 sequence (P34972 whole entry): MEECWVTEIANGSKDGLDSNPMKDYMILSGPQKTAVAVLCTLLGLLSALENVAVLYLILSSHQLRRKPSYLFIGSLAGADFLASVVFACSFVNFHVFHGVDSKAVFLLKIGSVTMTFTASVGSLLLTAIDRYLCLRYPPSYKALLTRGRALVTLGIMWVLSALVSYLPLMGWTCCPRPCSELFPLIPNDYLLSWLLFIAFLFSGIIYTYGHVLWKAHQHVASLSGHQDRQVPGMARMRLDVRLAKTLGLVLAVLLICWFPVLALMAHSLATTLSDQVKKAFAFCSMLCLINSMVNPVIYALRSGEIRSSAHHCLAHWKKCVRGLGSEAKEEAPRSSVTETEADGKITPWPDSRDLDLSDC
T2 sequence (P21554 whole entry): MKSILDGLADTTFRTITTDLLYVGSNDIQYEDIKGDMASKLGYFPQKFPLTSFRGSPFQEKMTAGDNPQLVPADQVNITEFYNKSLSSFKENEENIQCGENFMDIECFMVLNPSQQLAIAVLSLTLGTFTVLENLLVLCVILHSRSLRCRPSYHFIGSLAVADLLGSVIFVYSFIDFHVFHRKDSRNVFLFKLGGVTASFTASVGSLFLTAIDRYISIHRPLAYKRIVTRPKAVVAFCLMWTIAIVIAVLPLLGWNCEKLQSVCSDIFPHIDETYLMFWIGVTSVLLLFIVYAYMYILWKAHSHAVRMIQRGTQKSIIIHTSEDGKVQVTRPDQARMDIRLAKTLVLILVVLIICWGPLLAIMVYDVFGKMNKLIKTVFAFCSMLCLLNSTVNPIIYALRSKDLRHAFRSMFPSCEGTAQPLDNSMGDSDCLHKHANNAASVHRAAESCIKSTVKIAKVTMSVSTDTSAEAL

Molecule | chemical stability in aqueous DMSO-d6 (NMR), in words [1] | stability in aqeous DMSO-d6 (1H, 11B{1H}-NMR) [1] | stability versus binding affinity assay time frame [1] | Ki (human CB2R; mean, read-out: KiCB2R mean) [nM] | Ki (human CB2R; [5]) | further results
1-(4-Fluorobutyl)-2-oxo-N-(1,2-dicarba-closo-dodecaboranyl)-1,2-dihydro-1,8-naphthyridine-3-carboxamide [Compound 9] | additional signals were visible already after 2 h | < 0.083 days | too low | 40.8 | – | –
1-(4-Fluorobutyl)-2-oxo-N-(1,7-dicarba-closo-dodecaboranyl)-1,2-dihydro-1,8-naphthyridine-3-carboxamide [Compound 10] | – | < 8 days | stability beyond the binding affinity assay time frame | 35.4 | 43.8 nM and 26.9 nM | –
1-(4-Fluorobutyl)-2-oxo-N-(1,7-dicarba-closo-dodecaboranyl)-1,2-dihydro-1,8-naphthyridine-3-carboxamide [Compound 11] | stable for more than one year; also recorded: good chemical stability | ? 491 d | stability beyond the binding affinity assay time frame | 3.9 | 2.77 nM and 5.01 nM | –
O=C(NC12CC3CC(CC(C3)C1)C2)c1cc2cccnc2n(CCCCF)c1=O [LU13] | – | – | – | – | – | Ki (CB2R): 0.6 nM
Cc1s/c(=N\C(=O)C2C(C)(C)C2(C)C)n(CCCC[18F])c1C [[^18F]3] | – | – | – | – | – | intact radioligand in brain ([2]; brain samples): 36%; intact radiotracer in plasma ([2]; mouse, in vivo): 7%
Cc1s/c(=N\C(=O)C2C(C)(C)C2(C)C)n(CCOCC[18F])c1C [[^18F]4] | – | – | – | – | – | intact radiotracer in plasma [3]: 25%
C[C@]12CC[C@H]3[C@@H](CCC4=CC(=O)CC[C@@]43C)[C@@H]1CC[C@@H]2O [testosterone] | – | – | – | – | – | conversion of positive control [4]: complete conversion
(Z)-N-[3-(4-Fluorobutyl)-4,5-dimethylthiazole-2(3H)-ylidene]-(1,2-dicarba-closo-dodecaboranyl)-carboxamide [Compound 15] | good chemical stability | < 3 days | stability beyond the binding affinity assay time frame | 3.3 | 3.28 nM and 3.26 nM | –
(Z)-N-[3-(4-Fluorobutyl)-4,5-dimethylthiazole-2(3H)-ylidene]-(1,7-dicarba-closo-dodecaboranyl)-carboxamide [LUZ5] | – | ? 23 d | stability beyond the binding affinity assay time frame | 0.8 | – | Ki (human CB1R): > 10 µM; stable in DMSO-d6 with increased amounts of D2O ([1]; D2O in DMSO-d6 1:5 (v/v), 11B{1H} NMR): at least 8 days; stable in DMSO-d6 with increased amounts of H2O ([1]; H2O in DMSO-d6 1:5 (v/v), 11B{1H} NMR): at least 19 days
(Z)-N-[3-(4-Fluorobutyl)-4,5-dimethylthiazole-2(3H)-ylidene]-(1,12-dicarba-closo-dodecaboranyl)-carboxamide [Compound 17] | stable for more than one year; also recorded: good chemical stability | ? 491 d | stability beyond the binding affinity assay time frame | 1.3 | 1.36 nM and 1.17 nM | –
